Experimental data: patent publication US12643918B2, “Thiadiazolone derivatives and their use as AMPK agonists for the treatment of diabetes and related disorders” (Betagenon AB, priority 2020, dated 2026)
Converted amounts (≈) assume the structure as drawn. “Also recorded” adds a separate entry of the source. Where two headings read alike, the source gives them in different places. Values belong to the compound of their own block, whether it stands above or below them.

Key:
[1] = Stability of compounds in USP/phosphate buffer pH 7.40; assay type: physicochemical; conditions: for % remaining compared to 0.0 min: Phosphate Buffer pH 7.40, 37° C., 5 μM; for Stability compared to Compound 1 (in words): mildly basic solutions (pH 7.4)
Procedure: 5 μM solutions of Compounds 1, 3 and 5 in USP buffer (pH: 7.40) were prepared with 5 mM DMSO stock solutions.

AMPK = experiment: Activation of AMPK: Western blot of p-T172 AMPK in INS-1E insulinoma cells; assay type: cell-based; conditions: for ratio between p-T172 AMPK and non-phosphorylated AMPK: INS-1E cells, control = 1.00; for Phosphorylation of AMPK (T172) / AMPK activation (in words): cultured INS-1E cells, Western blot
Procedure: INS-1E cells were cultivated as described in Steneberg et al., JCI Insight. 2018; 3(12):e99114. https://doi.org/10.1172/jci.insight.99114, using 5% instead of 10% fetal bovine serum when plated for treatment.
Compound 3 was dissolved at 10 mM in DMSO and frozen at −20° C.
Compound 5 was dissolved at 10 mM in a 50:50 water/DMSO mixture, incubated for 15 minutes at room temperature in ultrasonic bath (VWR ultrasonic cleaner), and stored at room temperature.
The INS-1E cells were treated in serum free medium with increasing doses of Compounds 3 and 5 for 4 and 16 hours, respectively, in accordance with the methods described in Steneberg et al., JCI Insight. 2018; 3(12):e99114. https://doi.org/10.1172/jci.insight.99114.
Western blot analysis of the INS-1E cells was performed as described in Steneberg et. al., JCI Insight. 2018; 3(12):e99114. https://doi.org/10.1172/jci.insight.99114. The cell lysates were passed through a 30-gauge needle, ˜8-times and centrifuged for 10 min at +4° C. at 14000 rpm. Quantified values for AMPKα, and phosphorylated-T172 AMPKα, were normalized toward the quantified values for β-Actin.

[2] = Single dose oral pharmacokinetic study of Compounds 1 and 3 in Sprague Dawley rats; assay type: in vivo
Procedure: 10.0 mL of 2% w/v methyl cellulose solution in phosphate buffer (pH 7.5) was added to a 100 mL conical flask along with 1 g of 2 mm glass beads. The solution was vigorously stirred on a magnetic stirrer. 100 mg of Compound 1 was slowly added to the solution, and the solution was vigorously stirred for approximately 1 h. The pH of the formulation was measured to be 7.49. Each formulation was freshly prepared prior to administration to the animals. The final concentration of Compound 1 in of the formulation was 10 mg/mL. The formulation was administered at 5 mL/kg body weight.
10.0 mL of 2% w/v methyl cellulose solution in phosphate buffer (pH 7.5) was added to a 100 mL of conical flask together with 1 g of 2 mm glass beads. The solution was vigorously stirred on a magnetic stirrer. 134 mg of Compound 3 was slowly added to the solution, and the solution was vigorously stirred for approximately 1 h. The pH of the formulation was measured to be 7.44. Each formulation was freshly prepared prior to administration to the animals. The final concentration of Compound 3 in the formulation was 13.4 mg/mL, which is equivalent to 10 mg/mL of Compound 1. The formulation was administered at 5 mL/kg body weight.
The doses of 50 mg/kg and 67 mg/kg b.w. for Compound 1 and Compound 3, respectively, were selected for comparison of equimolar doses.
Adult healthy male Sprague Dawley rats aged 9 to 11 weeks were used for experimentation after a minimum three days of acclimatisation. Fed state animals were administered the formulation of Compound 1 or Compound 3 orally via gavage at a dose of 50 mg/kg or 67 mg/kg body weight, respectively.
Under mild isoflurane anesthesia, blood specimens were collected by retro-orbital puncture method using capillary tubes into pre-labeled tubes containing anticoagulant (K2EDTA: 2 mg/mL blood) during the next 72 hours post-dosing, as detailed in Table 6. For blood sampling at multiple time points, the right and left eyes were used alternatively. Collected blood specimens were centrifuged at 6000 rpm, 4° C. for 10 minutes and the plasma samples were separated and stored at −80° C. until analysis.

[3] = Solubility of compounds at different pH; assay type: physicochemical; conditions: for solubility at 2 h / solubility at 20 h: 30 °C, thermodynamic from solid, read-out: Absolute Solubility; for solubility at 2 h: 2 hours incubation; for solubility at 20 h: 20 hours incubation
Procedure: Approximately 5 mg of each test compound (Compounds 1 and 5) was weighed in duplicate, and each weighed sample was transferred to a separate centrifuge tube containing 5 mL of the respective buffer. All the tubes were tightly stoppered and agitated at a constant rate at 30±1° C. using an orbital shaker.
[…] 50 μL of the buffer solution from each removed tube was transferred into a 10 mL tube and made up to the mark with diluent. Then 2.5 mL of the supernatant of each tube was transferred into a 50 mL tube and made up to […].
The nominal concentration of the solution in each 50 mL tube was 5 μg/mL.
Linearity solutions of 40 ng/mL to 10000 ng/mL were plotted.

[4] = mice, Das et al. Reg Anesth Pain Med 2019, cited from earlier work
[5] = pH 9.2, aqueous buffer, Alkaline Borate Buffer, pH 9.20
[6] = plasma Compound 1 after oral Compound 1, 50 mg/kg b.w., fed male rats
[7] = pH 4.5, aqueous buffer, Acetate Buffer, pH 4.50
[8] = pH 7.4, aqueous buffer, Phosphate Buffer, pH 7.40

- % remaining compared to 0.0 min ([1]; 0.0 min): 100.00%
- % remaining compared to 0.0 min ([1]; 15 min): 86.96%
- % remaining compared to 0.0 min ([1]; 30 min): 93.61%
- % remaining compared to 0.0 min ([1]; 60 min): 88.74%
- % remaining compared to 0.0 min ([1]; 120 min): 75.40%
- Stability compared to Compound 1 (in words) [1]: comparable stability to Compound 1
- Increase in systemic exposure of Compound 1 after oral Compound 3 compared to administration of Compound 1 ([2]; equimolar oral doses, rats): two-fold
Compound: O=C(O)CCC(=O)OCn1c(=NC(=O)c2ccc(Cl)cc2)sn(Cc2ccc(Cl)cc2)c1=O (stereo in doubt) [Compound 3, 4-({(5Z)-5-[(4-chlorobenzoyl)imino]-2-[(4-chlorophenyl)methyl]-3-oxo-1,2,4-thiadiazolidin-4-yl}methoxy)-4-oxobutanoic acid]
- ratio between p-T172 AMPK and non-phosphorylated AMPK (AMPK; 2.5 μM, 4 h, 0.1% DMSO): 1.62
- ratio between p-T172 AMPK and non-phosphorylated AMPK (AMPK; 5 μM, 4 h, 0.1% DMSO): 1.88
- ratio between p-T172 AMPK and non-phosphorylated AMPK (AMPK; 10 μM, 4 h, 0.1% DMSO): 2.95
- Phosphorylation of AMPK (T172) / AMPK activation (in words) (AMPK): increase phosphorylation of AMPK in a dose-dependent manner; also recorded: increase phosphorylated-T172 AMPK in a dose-dependent manner

- solubility at 2 h [3, 5]: 29 µg/mL (≈ 76.3 µM)
- solubility at 20 h [3, 5]: 44 µg/mL (≈ 116 µM)
- % remaining compared to 0.0 min ([1]; 0.0 min): 100.00%
- % remaining compared to 0.0 min ([1]; 15 min): 97.62%
- % remaining compared to 0.0 min ([1]; 30 min): 101.31%
- % remaining compared to 0.0 min ([1]; 60 min): 99.41%
- % remaining compared to 0.0 min ([1]; 120 min): 106.18%
- concentration at 1 h ([2]; male, Sprague Dawley, rat, plasma, 50 mg/kg b.w., after oral Compound 1, 50 mg/kg, 1.00 h): 4240 ng/mL
- concentration at 2 h ([2]; male, Sprague Dawley, rat, plasma, 50 mg/kg b.w., after oral Compound 1, 50 mg/kg, 2.00 h): 7990 ng/mL
- concentration at 4 h ([2]; male, Sprague Dawley, rat, plasma, 50 mg/kg b.w., after oral Compound 1, 50 mg/kg, 4.00 h): 14000 ng/mL
- concentration at 6 h ([2]; male, Sprague Dawley, rat, plasma, 50 mg/kg b.w., after oral Compound 1, 50 mg/kg, 6.00 h): 17000 ng/mL
- concentration at 8 h ([2]; male, Sprague Dawley, rat, plasma, 50 mg/kg b.w., after oral Compound 1, 50 mg/kg, 8.00 h): 19300 ng/mL
- concentration at 24 h ([2]; male, Sprague Dawley, rat, plasma, 50 mg/kg b.w., after oral Compound 1, 50 mg/kg, 24.00 h): 9440 ng/mL
- concentration at 0 h ([2]; male, Sprague Dawley, rat, plasma, after oral Compound 1, 50 mg/kg, 0.00 h): 0 ng/mL
- concentration at 0.25 h ([2]; male, Sprague Dawley, rat, plasma, after oral Compound 1, 50 mg/kg, 0.25 h): 620 ng/mL
- concentration at 0.5 h ([2]; male, Sprague Dawley, rat, plasma, after oral Compound 1, 50 mg/kg, 0.50 h): 1980 ng/mL
- concentration at 48 h ([2]; male, Sprague Dawley, rat, plasma, after oral Compound 1, 50 mg/kg, 48.00 h): 720 ng/mL
- concentration at 72 h ([2]; male, Sprague Dawley, rat, plasma, after oral Compound 1, 50 mg/kg, 72.00 h): 0 ng/mL
- AUCextrap [2, 6]: 2.33 ± 1.74%
- AUCinf [2, 6]: 458.31 ± 154.77 µg·h/mL
- AUClast [2, 6]: 449.40 ± 157.75 µg·h/mL
- Cmax [2, 6]: 19600 ± 5540 ng/mL
- MRTlast [2, 6]: 14.78 ± 0.68 h
- T1/2 [2, 6]: 8.42 ± 1.47 h
- Tmax [2, 6]: 7.33 ± 1.16 h
Compound: O=C(Nc1nc(=O)n(Cc2ccc(Cl)cc2)s1)c1ccc(Cl)cc1 [Compound 1, 4-chloro-N-[2-[(4-chlorophenyl)methyl]-3-oxo-1,2,4-thiadiazol-5-yl]benzamide]
- Effect on pain (in words) ([4]; listed as compound of formula II): effective at treating pain; also recorded: capable of treating pain

- solubility at 2 h [3, 7]: 15 µg/mL
- solubility at 20 h [3, 7]: 15 µg/mL
- solubility at 2 h [3, 8]: 119 µg/mL
- solubility at 20 h [3, 8]: 98 µg/mL
- solubility at 2 h [3, 5]: 720 µg/mL
- solubility at 20 h [3, 5]: 1240 µg/mL
- solubility at 2 h ([3]; Ultrapure water): 419 µg/mL
- solubility at 20 h ([3]; Ultrapure water): 36 µg/mL
- Solubility relative to Compound 1 ([3]; basic solution): up to 30 times
- Solubility compared to Compound 1 (in words) ([3]; basic solutions (pH>7) and mildly acidic conditions): higher solubility compared to Compound 1
- % remaining compared to 0.0 min ([1]; 0.0 min): 100.00%
- % remaining compared to 0.0 min ([1]; 15 min): 103.92%
- % remaining compared to 0.0 min ([1]; 30 min): 107.58%
- % remaining compared to 0.0 min ([1]; 60 min): 107.88%
- % remaining compared to 0.0 min ([1]; 120 min): 97.30%
- Stability compared to Compound 1 (in words) [1]: comparable stability to Compound 1
Compound: O=C(/N=c1\sn(Cc2ccc(Cl)cc2)c(=O)n1COP(=O)([O-])[O-])c1ccc(Cl)cc1.[Na+].[Na+] [Compound 5, disodium {(5Z)-5-[(4-chlorobenzoyl)imino]-2-[(4-chlorophenyl)methyl]-3-oxo-1,2,4-thiadiazolidin-4-yl}methyl phosphate]
- ratio between p-T172 AMPK and non-phosphorylated AMPK (AMPK; 2.5 μM, 16 h, 0.05% DMSO): 1.29
- ratio between p-T172 AMPK and non-phosphorylated AMPK (AMPK; 5 μM, 16 h, 0.05% DMSO): 1.62
- ratio between p-T172 AMPK and non-phosphorylated AMPK (AMPK; 10 μM, 16 h, 0.05% DMSO): 3.21
- Phosphorylation of AMPK (T172) / AMPK activation (in words) (AMPK; phosphate): increase phosphorylation of AMPK in a dose-dependent manner; also recorded: increase phosphorylated-T172 AMPK in a dose-dependent manner

Compound: CN(C)C(=N)N=C(N)N [metformin]
- Effect on pain (in words) [4]: effective at treating pain
